# Laboratory results taken from patent US9585867B2, “Cannabinod formulation for the sedation of a human or animal” (priority 2015, dated 2017).
# Read-outs that look alike come from different tables or passages of the source.
# Experiments:
# [1] = test system: cannabinoid receptor; settings: cited from earlier work
# [2] = Inventor experimentation: intermuscular injection of tetrahydrocannabinol, incapacitation; assay type: in vivo, human; settings: intermuscular injection of 5.0 mg; overall healthy, 100 kg person
# Description: If it is unnecessary to “immediately”, or to “near-immediately”, incapacitate a recipient, the inventive formulation may strictly consist of cannabinoids such as tetrahydrocannabinol. During instant inventor experimentation, an intermuscular injection of 5.0 mg of tetrahydrocannabinol rendered an overall healthy, 100 kg person, fully incapacitated within 10-30 seconds, with its effects lasting approximately four-to-six hours.
# [3] = test system: laboratory animals; settings: cited from earlier work
# [4] = test system: monkeys; experiment: Repeated intravenous study with emulsified tetrahydrocannabinol in monkeys; assay type: in vivo; settings: near-pure tetrahydrocannabinol
# Description: Subsequently, intravenous studies were repeated using tetrahydrocannabinol emulsified in a sesame oil, polysorbate 80, or saline vehicles at 15 mg/ml or 40 mg/ml. The emulsions were administered at a uniform rate of 2 ml/15 sec. Doses administered were 1, 4, 16, 64, 92, 128, 192 and 256 mg/kg. All monkeys injected with 92 mg/kg or less survived and completely recovered from all effects within two to four days. An analogous intravenous dosage for a 100 kg human would be 9,200 mg (9.2 g) of near-pure tetrahydrocannabinol. All monkeys injected with 128 mg/kg or more succumb within thirty minutes for all but one subject, which took one-hundred-and-eighty minutes to expire. An analogous lethal intravenous dosage for a 100 kg human would be 12,800 mg (12.8 g) of near-pure tetrahydrocannabinol.
# Histopathological changes found in the lungs of the deceased monkeys were like those described after the previous intravenous experiment. […] Behavioral changes preceding death were salivation, prostration, coma, and tremors.
# Behavioral and physiological changes described clinically in the surviving monkeys followed a consistent developmental sequence and were roughly dose related in severity and duration. Onset was fifteen minutes following injection and duration was up to forty-eight hours. Huddled posture and lethargy were the most persistent changes. Constipation, anorexia, and weight loss were noted. […]
# [5] = test system: monkey; settings: cited from earlier work
# [6] = test system: monkeys; settings: cited from earlier work
# [7] = test system: dogs; settings: cited from earlier work
# [8] = test system: dog; settings: cited from earlier work
# [9] = test system: mice; settings: cited from earlier work
# [10] = test system: monkeys; settings: cited from earlier work; remark: listed apart in the source
# [11] = test system: rats; settings: cited from earlier work
# [12] = intravenous emulsion 15 or 40 mg/ml, 2 ml/15 sec
compound,measurement,setting,value
CCCCCCC(C)(C)c1ccc([C@@H]2C[C@H](O)CC[C@H]2CCCO)c(O)c1 [CP-55940],potency relative to phyto-cannabinoid THC,[1],many times more potent
CCCCCCC(C)(C)c1cc(O)c2c(c1)OC(C)(C)[C@@H]1CC=C(CO)C[C@@H]21 [HU-210],potency relative to phyto-cannabinoid THC,[1],about 100 times
CCCCCc1cc(O)c2c(c1)OC(C)(C)[C@@H]1CCC(C)=C[C@@H]21 [tetrahydrocannabinol],duration of effects,[2],four-to-six
same,time to full incapacitation,[2],10 to 30 s
same,lowest intravenous dosage which causes death,[3]; intravenous,approximately 1000 mg per kg of body weight
same,typical lethal oral dosage,[3]; oral,225-450 mg per kg of body weight
same,analogous intravenous dosage for a 100 kg human (survived dose),[4]; extrapolated from 92 mg/kg in monkeys,"9,200 mg"
same,analogous lethal intravenous dosage for a 100 kg human,[4]; extrapolated from 128 mg/kg in monkeys,"12,800 mg"
same,nonlethal oral consumption,[5],3 g/kg
same,fatalities,"[6]; 92 mg/kg intravenously, monkeys",no fatalities
same,time to death,"[6]; 128 mg/kg or more, the one remaining subject",one-hundred-and-eighty
same,dose at which all monkeys succumb,[6]; [12],≥ 128 mg/kg
same,dose at which all monkeys survived,[6]; [12],≤ 92 mg/kg
same,time to complete recovery from all effects,[6]; monkeys injected with 92 mg/kg or less,two to four
same,time to death,"[6]; monkeys injected with 128 mg/kg or more, all but one subject",thirty
same,time to severe respiratory depression and bradycardia after injection,[6]; monkeys that died,five
same,duration of behavioral and physiological changes,[6]; surviving monkeys,up to forty-eight
same,onset of behavioral and physiological changes following injection,[6]; surviving monkeys,fifteen
same,"time of maximal hypothermia, bradycardia and decreased respiratory rate post injection",[6]; surviving monkeys,two-to-six
same,time to complete recovery of survivors,[7]; dogs that survived the intravenous injection,five to nine
same,minimal lethal intravenous dose,"[7]; dogs, depending upon concentration",25 to 99 mg/kg
same,time to lethality after intravenous injection,"[7]; dogs, intravenous",within minutes
same,acute one dose LD50,"[7]; intravenous, dogs",100 mg/kg
same,nonlethal oral consumption,[8],3 g/kg
same,LD50 dose,[9],28.6 mg per 42.47 kg of body weight
same,acute one dose LD50,"[10]; intravenous, monkeys, depending on concentration of the solution",15.6 to 62.5 mg/kg
same,time to complete recovery of survivors,[10]; monkeys that survived the intravenous injection,five to nine
same,minimal lethal intravenous dose,"[10]; monkeys, depending upon concentration",3.9 to 15.5 mg/kg
same,time to lethality after intravenous injection,"[10]; monkeys, intravenous",within minutes
same,LD50 dose,[11],28.6 mg per 42.47 kg of body weight
same,time to lethality after intravenous injection,[11]; intravenous,within minutes
